Experimental data reported in US5510356A, “Bisquinolines and processes for their production and use to treat malaria” (priority 1991, dated 1996).
Entries after “also recorded” stand apart in the source; their conditions may differ.

Columns and labels:
[1] = tested on: P. falciparum clone D-6 (Sierra Leone); type: cell-based, Plasmodium falciparum; details: D-6 clone (resistant to mefloquine)
Description: (§1) In vitro activity against P. falciparum was determined using a modification of the semiautomated microdilution technique of Desjardins et al. (1979) and Milhous et al. (1985). Two P. falciparum malaria parasite clones, designated as Sierra Leone (D-6) and Indochina (W-2), are used in susceptibility testing. The former is resistant to mefloquine, and the latter to CQ, pyrimethamine, sulfadoxine, and quinine. Test compounds are dissolved in dimethylsulfoxide, and solutions serially diluted with culture media. Erythrocytes with 0.25 to 0.5% parasitemia are added to each well of a 96-well microdilution plate to give a final hematocrit of 1.5%. […] Results are reported as […] (ng/mL) values. For a complete description of this assay, see Milhous et al. (1985) and Lin et al. (1987).

[2] = tested on: P. falciparum clone W-2 (Indochina); type: cell-based, Plasmodium falciparum
Description: as §1

[3] = tested on: P. berghei (strain KBG 173); assay: In vivo activity against P. berghei in mice, single subcutaneous dose 3 days after infection; design: species or system Plasmodium berghei; mice
Description: In vivo activity against P. berghei was obtained against a drug-sensitive strain of P. berghei (strain KBG 173) (Osdene et al., 1967). Each test compound is administered subcutaneous to five male mice per dilution in a single subcutaneous dose 3 days after infection. Results are expressed in T-C values which indicate the mean survival time of the treated mice beyond that of the control animals; untreated mice survive on average 6.2 days. Compounds are classified as active (A) when the mean survival time of the treated mice is twice that of the controls (>6.2 days), and curative (C) when one or more test animals live 60 days post-infection. Deaths from 0-2 days post-treatment are attributed to toxicity (T).

P. falciparum = assay: In vitro activity against P. falciparum (both clones, D-6 and W-2); type: cell-based, Plasmodium falciparum; details: for Resistance Index: IC50 (W2)/IC50 (D6) ratio; for IC50: Plasmodium falciparum, clone not specified; for antimalarial activity (in words): general statement, refers to Table I
Description: as §1

CQ-resistant malaria = details: cited from earlier work; for activity against malaria / CQ-resistant malaria (in words): literature; for duration of action / toxicity: compared to CQ, Li et al., 1981a, Lin et al., 1982
P. berghei = details: cited from earlier work
[4] = 40 mg/kg s.c., single dose 3 days post infection, n = 5
[5] = 160 mg/kg s.c., single dose 3 days post infection, n = 5
[6] = 640 mg/kg s.c., single dose 3 days post infection, n = 5

Row | Compound | P. falciparum IC50 (nM) D-6 [1] [nM] | P. falciparum IC50 (nM) W-2 [2] [nM] | in vivo activity against P. berghei (in words) [3] | P. berghei T-C [3, 4] [days] | Resistance Index (P. falciparum) | IC50 (P. falciparum) [nM] | activity against malaria / CQ-resistant malaria (in words) (CQ-resistant malaria) | P. berghei T-C [3, 5] [days] | further results
1 | Clc1ccc2c(N[C@@H]3CCCC[C@H]3Nc3ccnc4cc(Cl)ccc34)ccnc2c1 (relative stereo) [Compound 3, ±-trans-N^1,N^2 -Bis (7-chloroquinolin-4-Yl) cyclohexane-1,2-diamine] | 1.0 | 1.4 | either active or curative | 8.5 | 1.4 | < 6 | – | – | mice cured ([3]; 160 mg/kg): 4/5; mice cured ([3]; 320 mg/kg): 5/5; in vitro activity against P. falciparum (in words) (P. falciparum): most potent bisquinoline in vitro; antimalarial activity (in words) (P. falciparum): exceptional activity
2 | Clc1ccc2c(NN3CCN(Nc4ccnc5cc(Cl)ccc45)CC3)ccnc2c1 [1,4-bis(7-chloro-4-quinolylamino)piperazine] | – | – | – | – | – | – | active against malaria | – | activity against P. berghei in mice, compared with CQ (P. berghei; mice, Singh et al., 1971): significantly more effective than is CQ against P. berghei in mice
3 | CCN(CC)CCCC(C)Nc1ccnc2cc(Cl)ccc12 (stereo not shown) [CQ, chloroquine, reference compound] | – | – | – | – | 11.2 | – | – | – | P. berghei T-C ([3]; CQ, 40 mg/kg s.c., average of ten best data sets from WRAIR): 8.7 days
4 | CC(CNc1ccnc2cc(Cl)ccc12)Nc1ccnc2cc(Cl)ccc12 (stereo not shown) [Compound 2, N1,N2 -Bis(7-chloroquinolin-4-yl)propane1,2-diamine] | 3.5 | 3.9 | either active or curative | 3.4 | 1.1 | < 6 | – | 5.7 | antimalarial activity (in words) (P. falciparum): improved activity
5 | Clc1ccc2c(NCCCNc3ccnc4cc(Cl)ccc34)ccnc2c1 [Compound 4, N^1,N^3 -Bis(7-chloroquinolin-4-yl)propane1,3-diamine] | 15.1 | 82.9 | without activity in vivo; also recorded: inactive in both screens | 0.2 | 5.5 | – | – | 0.4 | P. berghei T-C [3, 6]: 1.2 days; in vitro activity against P. falciparum (in words) (P. falciparum): approximately an order of magnitude less potent in vitro; also recorded: inactive in both screens
6 | Clc1ccc2c(NCCCCNc3ccnc4cc(Cl)ccc34)ccnc2c1 [Compound 5, N1,N4 -Bis(7-chloroquinolin-4-yl)butane-1,4-diamine] | 387 | 80.9 | without activity in vivo; also recorded: inactive in both screens | 0.5 | 0.2 | – | – | 2.3 | P. berghei T-C [3, 6]: 5.6 days; in vitro activity against P. falciparum (in words) (P. falciparum): approximately an order of magnitude less potent in vitro; also recorded: inactive in both screens
7 | Clc1ccc2c(NCCCCCNc3ccnc4cc(Cl)ccc34)ccnc2c1 [Compound 6, N^1, N^5 -Bis(7-chloroquinolin-4-yl)pentane-1,5-diamine] | 2.5 | 3.8 | either active or curative | 1.0 | 1.5 | < 6 | – | 5.1 | –
8 | CC(CCCNc1ccnc2cc(Cl)ccc12)CNc1ccnc2cc(Cl)ccc12 (stereo not shown) [Compound 7, N^1, N^5 -Bis(7-chloroquinolin-4-yl)-2-methylpentane-1,5-diamine] | 2.7 | 3.0 | either active or curative | 1.2 | 1.1 | < 6 | – | 3.6 | antimalarial activity (in words) (P. falciparum): improved activity
9 | Clc1ccc2c(NCCCCCCNc3ccnc4cc(Cl)ccc34)ccnc2c1 [Compound 8, N^1, N^6 -Bis(7-chloroquinolin-4-yl)hexane-1,6-diamine] | 21.1 | 23.4 | – | 0.4 | 1.1 | – | – | 3.9 | –
10 | Clc1ccc2c(NCCCCCCCNc3ccnc4cc(Cl)ccc34)ccnc2c1 [Compound 9, N^1, N^7 -Bis(7-chloroquinolin-4-Yl)heptane-1,7-diamine] | 1.9 | 4.3 | – | 2.6 | 2.3 | < 6 | – | 7.2 | –
11 | Clc1ccc2c(NCCCCCCCCNc3ccnc4cc(Cl)ccc34)ccnc2c1 [Compound 10, N^1, N^8 -Bis(7-chloroquinolin-4-yl)octane-1,8diamine] | 5.6 | 3.1 | – | -0.2 | 0.6 | < 6 | – | 1.0 | –
12 | Clc1ccc2c(NCCCCCCCCCNc3ccnc4cc(Cl)ccc34)ccnc2c1 [Compound 11, N^1, N^9 -Bis(7-chloroquinolin-4-yl)nonane-1,9-diamine] | 3.0 | 2.3 | – | 3.1 | 0.8 | < 6 | – | 7.4 | P. berghei activity class (A = active, C = curative, with number of mice) ([3]; 640 mg/kg s.c., single dose, n = 5): A (active (A) when the mean survival time of the treated mice is twice that of the controls (>6.2 days))
13 | Clc1ccc2c(NCCCCCCCCCCNc3ccnc4cc(Cl)ccc34)ccnc2c1 [Compound 12, N^1, N^10 -Bis(7-chloroquinolin-4-yl)decane-l,10-diamine] | 5.7 | 3.4 | – | 0.2 | 0.6 | – | – | 0.2 | P. berghei T-C [3, 6]: 0.6 days
14 | Clc1ccc2c(NCCCCCCCCCCCCNc3ccnc4cc(Cl)ccc34)ccnc2c1 [Compound 13, N^1 N^12 -Bis(7-chloroquinolin-4-yl)dodecane-1,12-diamine] | 59.7 | 30.8 | without activity in vivo; also recorded: inactive in both screens | 0.0 | 0.5 | – | – | -0.2 | P. berghei T-C [3, 6]: 0.0 days; in vitro activity against P. falciparum (in words) (P. falciparum): approximately an order of magnitude less potent in vitro; also recorded: inactive in both screens
15 | Clc1ccc2c(N3CCN(CCCN4CCN(c5ccnc6cc(Cl)ccc56)CC4)CC3)ccnc2c1 [PQ, piperaquine] | 8.3 | 16.1 | – | – | 1.9 | – | active against malaria; also recorded: very effective against CQ-resistant malaria in China | – | duration of action (CQ-resistant malaria): longer duration of action; toxicity (CQ-resistant malaria): less toxicity when compared to CQ
16 | CCN(CC)Cc1cc(Nc2ccnc3cc(Cl)ccc23)ccc1O [amodiaquine] | – | – | – | – | – | – | active to various extents against CQ-resistant malaria | – | –
17 | OC(CN1CCN(c2ccnc3cc(Cl)ccc23)CC1)CN1CCN(c2ccnc3cc(Cl)ccc23)CC1 [hydroxypiperaquine] | – | – | – | – | – | – | active against malaria; also recorded: very effective against CQ-resistant malaria in China | – | duration of action (CQ-resistant malaria): longer duration of action; toxicity (CQ-resistant malaria): less toxicity when compared to CQ
18 | OC(c1cc(C(F)(F)F)nc2c(C(F)(F)F)cccc12)C1CCCCN1 (stereo not shown) [mefloquine] | – | – | – | – | – | – | active to various extents against CQ-resistant malaria | – | –
19 | C=C[C@H]1C[N@@]2CC[C@H]1C[C@H]2[C@H](O)c1ccnc2ccc(OC)cc12 [quinine] | – | – | – | – | – | – | active to various extents against CQ-resistant malaria | – | –
20 | CCN(CC)Cc1cc(Nc2ccnc3cc(Cl)ccc23)ccc1OC(=O)CCC(=O)Oc1ccc(Nc2ccnc3cc(Cl)ccc23)cc1CN(CC)CC [succinic acid diester of amodiaquine] | – | – | – | – | – | – | inactive against malaria | – | –
21 | dichloroquinazine | – | – | – | – | – | – | active against CQ-resistant falciparum malaria | – | resistance of P. berghei (P. berghei; CQ-resistant strain of P. berghei, Warhurst, 1966): Resistance to dichloroquinazine, however, is noted for a CQ-resistant strain of P. berghei
